Test results from patent publication US12428378B2, “Methods and materials for increasing level of phosphorylated AMPK protein” (University of Pittsburgh—Of the Commonwealth System of …, priority 2019, dated 2025).

Tested on: pAMPK
Assay: pAMPK immunostaining chemiluminescence assay in Beas2B cells
Format: cell-based
Conditions: Homo sapiens, BEAS-2B, 18 h, DMEM no glucose media, compounds 3-34, 36-44, 47-60 tested as HCl salts, read-out: efficacy (minimal compound concentration needed to increase pAMPK by 30%)
Method: Beas2B cells were plated in 384 white nunc plate (4000 cells per well) for overnight. Compounds were serially diluted in DMEM no glucose media using the liquid handler. Cells were washed once using Biotek EL406 before compound addition for additional 18 hours. Cells were washed and fixed with PFA before immunostained with pAMPK primary antibody and anti-Rabbit HRP secondary antibody. Finally, 25 μl of ECL reagent will be added to cells, and chemical luminescence signal will be counted using plate reader. Compounds efficacies (μM) were determined by the minimal compound concentration needed to increase pAMPK by 30%. Activity: “+” equals >10 μM; “++” equals between ≤10 μM and >1 μM; and “+++” equals ≤1 μM.

Compound	EC (30% increase)
Cc1ccccc1CN(Cc1cnccc1C(F)(F)F)CC(O)COc1ccccc1 (stereo not shown) [compound 87]	1 to 10 µM
Cc1ccccc1CN(CC(O)COc1ccccc1)C(=O)c1ccc(C(F)(F)F)nc1 (stereo not shown) [compound 88]	≤ 1 µM
Cc1ccccc1CN(CC(O)COc1ccc(C(F)(F)F)cc1)C(=O)c1c[nH]nc1C (stereo not shown) [compound 89]	1 to 10 µM
O=C(c1cncs1)N(Cc1ccccc1Cl)CC(O)COc1ccc(C(F)(F)F)cc1 (stereo not shown) [compound 90]	≤ 1 µM
Cn1ccnc1C(=O)N(Cc1ccccc1Cl)CC(O)COc1ccc(C(F)(F)F)cc1 (stereo not shown) [compound 91]	≤ 1 µM
FC(F)(F)c1ccc(OCCCc2nc3ccccc3cc2-c2ccccc2)cc1 [compound 92]	1 to 10 µM
OC(COc1ccc(C(F)(F)F)cc1)CN1CCc2ccccc2C1c1cncs1 (stereo not shown) [compound 93]	1 to 10 µM
[2H]C1(c2cncs2)c2ccccc2CCN1CC(O)COc1ccc(C(F)(F)F)cc1 (stereo not shown) [compound 94]	1 to 10 µM
OC(COc1ccc(C(F)(F)F)cc1)CN1CCc2ccccc2C1c1cccnc1 (stereo not shown) [compound 95]	≤ 1 µM
[2H]C1(c2cccnc2)c2ccccc2CCN1CC(O)COc1ccc(C(F)(F)F)cc1 (stereo not shown) [compound 96]	≤ 1 µM
OC(COc1ccc(C(F)(F)F)cc1)CN1Cc2ccccc2CC1c1cncs1 (stereo not shown) [compound 98]	1 to 10 µM
[2H]C1(c2cncs2)c2ccccc2CCN1CCCOc1ccc(C(F)(F)F)cc1 (stereo not shown) [compound 99]	≤ 1 µM
FC(F)(F)c1ccc(OCCCN2CCc3ccccc3C2c2cccnc2)cc1 (stereo not shown) [compound 100]	≤ 1 µM
[2H]C1(c2cccnc2)c2ccccc2CCN1CCCOc1ccc(C(F)(F)F)cc1 (stereo not shown) [compound 101]	≤ 1 µM
[2H]C([2H])(c1cccnc1)N(Cc1ccccc1Cl)CC(O)COc1ccc(C(F)(F)F)cc1 (stereo not shown) [compound 102]	≤ 1 µM
O=C(COc1ccc(C(F)(F)F)cc1)Cc1nc2ccccc2cc1-c1cccnc1 [compound 103]	> 10 µM
FC(F)(F)c1ccc(OCCCN(Cc2cncs2)Cc2ccccc2Cl)cc1 [compound 104]	≤ 1 µM
Cc1ccccc1CN(CCCOc1ccc(C(F)(F)F)cc1)Cc1nccn1C [compound 105]	≤ 1 µM
Cn1ccnc1CN(CCCOc1ccc(C(F)(F)F)cc1)Cc1ccccc1Cl [compound 106]	≤ 1 µM
FC(F)(F)c1ccc(OCCCN2CCc3ccccc3C2c2cncs2)cc1 (stereo not shown) [compound 107]	≤ 1 µM
Cn1cncc1C(=O)N(Cc1ccccc1Cl)CC(O)COc1ccc(C(F)(F)F)cc1 (stereo not shown) [compound 108]	≤ 1 µM
Cc1ccccc1CN(CCCOc1ccc(C(F)(F)F)cc1)C(=O)c1cncn1C [compound 109]	≤ 1 µM
Cc1ccccc1CN(CCCOc1ccc(C(F)(F)F)cc1)C(=O)c1ccccc1 [compound 110]	≤ 1 µM
OC(COc1ccc(C(F)(F)F)cc1)CN1CCc2ccccc2[C@@H]1c1ccccc1 (stereo partly shown) [compound 111]	1 to 10 µM
O[C@@H](COc1ccc(C(F)(F)F)cc1)CN1CCc2ccccc2[C@@H]1c1ccccc1 [compound 112]	≤ 1 µM
O[C@H](COc1ccc(C(F)(F)F)cc1)CN1CCc2ccccc2[C@@H]1c1ccccc1 [compound 113]	1 to 10 µM

Compound	EC (30% increase)
OC(COc1ccc(C(F)(F)F)cc1)CN1CCc2ccccc2[C@H]1c1ccccc1 (stereo partly shown) [compound 114]	> 10 µM
O[C@H](COc1ccc(C(F)(F)F)cc1)CN1CCc2ccccc2[C@H]1c1ccccc1 [compound 115]	1 to 10 µM
O[C@@H](COc1ccc(C(F)(F)F)cc1)CN1CCc2ccccc2[C@H]1c1ccccc1 [compound 116]	> 10 µM
Cc1ccccc1CN(Cc1cccnc1)C(=O)C(O)COc1ccc(C(F)(F)F)cc1 (stereo not shown) [compound 117]	1 to 10 µM
Cc1ccccc1CN(CC(O)COc1ccc(C(F)(F)F)cc1)C(C)c1cccnc1 (stereo not shown) [compound 118]	> 10 µM
Cc1ccccc1CN(CCCOc1ccc(C(F)(F)F)cc1)Cc1cncn1C [compound 119]	≤ 1 µM
Cc1ccccc1CN(Cc1cccnc1)CC(C)(C)COc1ccc(C(F)(F)F)cc1 [compound 121]	≤ 1 µM
Cn1cncc1CN(CCCOc1ccc(C(F)(F)F)cc1)Cc1ccccc1Cl [compound 122]	≤ 1 µM
Cc1ccccc1CN(CC(=O)COc1ccc(C(F)(F)F)cc1)C(=O)c1cccnc1 [compound 123]	1 to 10 µM
FC(F)(F)c1ccc(OCCCN2Cc3ccccc3CC2c2cncs2)cc1 (stereo not shown) [compound 124]	1 to 10 µM
Cn1cncc1C(=O)N(CCCOc1ccc(C(F)(F)F)cc1)Cc1ccccc1Cl [compound 125]	≤ 1 µM
CC(=O)OC(COc1ccc(C(F)(F)F)cc1)C(=O)N(Cc1cncs1)Cc1ccccc1Cl (stereo not shown) [compound 126]	> 10 µM
CC(=O)OC(COc1ccc(C(F)(F)F)cc1)C(=O)N(Cc1cccnc1)Cc1ccccc1Cl (stereo not shown) [compound 127]	≤ 1 µM
OC(COc1ccc(C(F)(F)F)cc1)CN1Cc2ccccc2C[C@@H]1c1cccnc1 (stereo partly shown) [compound 129]	≤ 1 µM
O[C@@H](COc1ccc(C(F)(F)F)cc1)CN1Cc2ccccc2C[C@@H]1c1cccnc1 [compound 130]	≤ 1 µM
O[C@H](COc1ccc(C(F)(F)F)cc1)CN1Cc2ccccc2C[C@@H]1c1cccnc1 [compound 131]	≤ 1 µM
OC(COc1ccc(C(F)(F)F)cc1)CN1Cc2ccccc2C[C@H]1c1cccnc1 (stereo partly shown) [compound 132]	≤ 1 µM
O[C@H](COc1ccc(C(F)(F)F)cc1)CN1Cc2ccccc2C[C@H]1c1cccnc1 [compound 133]	≤ 1 µM
O[C@@H](COc1ccc(C(F)(F)F)cc1)CN1Cc2ccccc2C[C@H]1c1cccnc1 [compound 134]	≤ 1 µM
[2H]C([2H])(c1cccnc1)N(CCCOc1ccc(C(F)(F)F)cc1)Cc1ccccc1C [compound 135]	≤ 1 µM
FC(F)(F)c1ccc(OCCCN(Cc2ccccc2)Cc2cccnc2)cc1 [compound 136]	≤ 1 µM
O=C(C(O)COc1ccc(C(F)(F)F)cc1)N(Cc1cccnc1)Cc1ccccc1Cl (stereo not shown) [compound 137]	≤ 1 µM
CC(c1cccnc1)N(Cc1ccccc1Cl)CC(O)COc1ccc(C(F)(F)F)cc1 (stereo not shown) [compound 138]	> 10 µM
O=C(c1cccnc1)N(Cc1ccccc1Cl)CC(O)COc1ccc(C(F)(F)F)cc1 (stereo not shown) [compound 141]	≤ 1 µM
FC(F)(F)c1ccc(OCC2(CN(Cc3cccnc3)Cc3ccccc3Cl)CC2)cc1 [compound 142]	≤ 1 µM
Fc1ccccc1CN(Cc1cccnc1)CC1(COc2ccc(C(F)(F)F)cc2)CC1 [compound 143]	≤ 1 µM

Compound	EC (30% increase)
Cn1cncc1C(=O)N(Cc1c(Cl)cccc1Cl)CC(O)COc1ccc(C(F)(F)F)cc1 (stereo not shown) [compound 144]	1 to 10 µM
Cn1cncc1C(=O)N(Cc1ccccc1C(F)(F)F)CC(O)COc1ccc(C(F)(F)F)cc1 (stereo not shown) [compound 145]	1 to 10 µM
Cc1ncccc1CN(CC(O)COc1ccc(C(F)(F)F)cc1)C(=O)c1cncn1C (stereo not shown) [compound 146]	> 10 µM
Cn1cncc1CN(Cc1ccccc1Cl)CC(O)COc1ccc(F)cc1F (stereo not shown) [compound 147]	> 10 µM
Cn1cncc1C(=O)N(Cc1ccccc1Cl)CC(O)COc1cnc(C(F)(F)F)nc1 (stereo not shown) [compound 148]	> 10 µM
Cn1ccnc1C1Cc2ccccc2CN1CC(O)COc1ccc(C(F)(F)F)cc1 (stereo not shown) [compound 149]	1 to 10 µM
FC(F)(F)c1ccc(OCCCN2Cc3ccccc3C[C@@H]2c2cccnc2)cc1 [compound 150]	1 to 10 µM
FC(F)(F)c1ccc(OCCCN2Cc3ccccc3C[C@H]2c2cccnc2)cc1 [compound 151]	≤ 1 µM
Cc1ccccc1CN(CC(O)COc1ccc(C(F)(F)F)cc1)C(=O)c1ccnn1C (stereo not shown) [compound 152]	1 to 10 µM
Cn1cncc1C(=O)N(Cc1ccccc1F)CC(O)COc1ccc(C(F)(F)F)cc1 (stereo not shown) [compound 153]	1 to 10 µM
Cc1ccccc1CN(CCOc1ccc(C(F)(F)F)cc1)Cc1cccnc1 [compound 154]	≤ 1 µM
FC(F)(F)c1ccc(OCCN(Cc2cccnc2)Cc2ccccc2Cl)cc1 [compound 155]	≤ 1 µM
Fc1ccccc1CN(CCOc1ccc(C(F)(F)F)cc1)Cc1cccnc1 [compound 156]	≤ 1 µM
Cn1ccnc1CN(CCOc1ccc(C(F)(F)F)cc1)Cc1ccccc1Cl [compound 157]	≤ 1 µM
Cn1ccnc1CN(CCOc1ccc(C(F)(F)F)cc1)Cc1ccccc1F [compound 158]	≤ 1 µM
Cn1cncc1CN(CCOc1ccc(C(F)(F)F)cc1)Cc1ccccc1Cl [compound 159]	≤ 1 µM
Cn1cncc1CN(CCOc1ccc(C(F)(F)F)cc1)Cc1ccccc1F [compound 160]	≤ 1 µM
Cn1cncc1C(=O)N(CC(=O)COc1ccc(C(F)(F)F)cc1)Cc1ccccc1Cl [compound 161]	≤ 1 µM
Cc1ccccc1CN(CC(O)COc1ccc(C(F)(F)F)cc1)C(C)c1nccn1C (stereo not shown) [compound 162]	> 10 µM
[2H]C(C)(c1cccnc1)N(Cc1ccccc1Cl)CC(O)COc1ccc(C(F)(F)F)cc1 (stereo not shown) [compound 163]	> 10 µM
FC(COc1ccc(C(F)(F)F)cc1)CN(Cc1cccnc1)Cc1ccccc1Cl (stereo not shown) [compound 164]	≤ 1 µM
Cc1ccccc1CN(Cc1cccnc1)CC(F)COc1ccc(C(F)(F)F)cc1 (stereo not shown) [compound 165]	≤ 1 µM
Cn1cncc1C(=O)N(CCCOc1cnc(C(F)(F)F)nc1)Cc1ccccc1Cl [compound 168]	> 10 µM
Cc1ccccc1CN(CCCOc1cnc(C(F)(F)F)nc1)Cc1cccnc1 [compound 169]	≤ 1 µM
